From patent US9296708B2, “Chimeric small molecules for the recruitment of antibodies to cancer cells” (YALE UNIVERSITY, priority 2008, dated 2016)
Residues, ends and D or L forms follow the SMILES beside them.

Experiments:
Format in all cases: biochemical
[1] = target: human recombinant PSMA (rhPSMA) (Homo sapiens (Human), UniProt Q04609); assay: NAALADase inhibition experiments (Amplex Red glutamate release); conditions: human recombinant PSMA (R&D Research); average of three runs ± standard deviation
Protocol: A 10 mM stock solution of N-acetyl-aspartyl-glutamate (NAAG) in 40 mM NaOH was diluted to 40 μM in Tris buffer (0.1M Tris-HCl, pH=7.5), and was added to 384 well plate (25 μl per well). […] For IC50 measurements, solutions of recruiting molecule 3 in water (2 μL per well, dilution series) were added to wells. For all other wells, 2 μL of water was added. To initiate reactions, rhPSMA (R&D research) diluted in Tris buffer (20 pg/mL), was added to each well (25 μl per well). For negative controls, Tris buffer was added (25 μl per well). The plate was covered and incubated for 15 minutes, at which time the protein was deactivated by heating the plate to 95° C. for 3 minutes. After plate was allowed to cool, glutamic acid release was visualized using an Amplex®-Red glutamic acid/glutamate oxidase assay kit (Invitrogen). Km and IC50 values were calculated using graphpad prism software, and Ki was calculated from these values using the Cheng-Prusoff Equation. This process was run in triplicate, and is reported in the manuscript as the average of three runs±standard deviation.

[2] = target: T1, rhPSMA (Homo sapiens (Human), UniProt Q04609); assay: PSMA inhibition assay (NAAG hydrolysis, Amplex Red); conditions: for IC50: mean of triplicate experiments ± SD
[3] = target: T1, rhPSMA; assay: Measurement of PSMA Km; conditions: NAAG substrate, 40 μM-312.5 nM, room temperature 15 min
Protocol: A 10 mM solution of N-acetyl-aspartylglutamate (NAAG) in 40 mM NaOH, and was then diluted in Reaction Buffer (100 mM Tris-HCl, pH 7.5) to a final NAAG concentration of 40 µM. The solution was added to a 384 well plate (20 µL per well). […] Reaction Buffer (20 µL) was added to the Km control series. The plate was incubated at room temperature for 15 min, and then heated to 95° C. for 3 minutes. The plate was allowed to cool to room temperature, and glutamic acid levels were measured using a commercially available Amplex®—Red Glutamic Acid/Glutamate Oxidase Assay Kit (Invitrogen). Fluorescence intensities were measured using a Synergy 2 multiwell plate reader (Biotek), fitted with excitation and emission filters of 545 nm and 590 nm, respectively. […] This value is consistent with that reported in the literature^7 and was employed in subsequent Ki calculations (see below).

[4] = Table 2, Cheng-Prusoff equation, Km 925 nM
[5] = Table 1, from IC50 and Km via Cheng-Prusoff equation

T1 sequence (Q04609 44-750): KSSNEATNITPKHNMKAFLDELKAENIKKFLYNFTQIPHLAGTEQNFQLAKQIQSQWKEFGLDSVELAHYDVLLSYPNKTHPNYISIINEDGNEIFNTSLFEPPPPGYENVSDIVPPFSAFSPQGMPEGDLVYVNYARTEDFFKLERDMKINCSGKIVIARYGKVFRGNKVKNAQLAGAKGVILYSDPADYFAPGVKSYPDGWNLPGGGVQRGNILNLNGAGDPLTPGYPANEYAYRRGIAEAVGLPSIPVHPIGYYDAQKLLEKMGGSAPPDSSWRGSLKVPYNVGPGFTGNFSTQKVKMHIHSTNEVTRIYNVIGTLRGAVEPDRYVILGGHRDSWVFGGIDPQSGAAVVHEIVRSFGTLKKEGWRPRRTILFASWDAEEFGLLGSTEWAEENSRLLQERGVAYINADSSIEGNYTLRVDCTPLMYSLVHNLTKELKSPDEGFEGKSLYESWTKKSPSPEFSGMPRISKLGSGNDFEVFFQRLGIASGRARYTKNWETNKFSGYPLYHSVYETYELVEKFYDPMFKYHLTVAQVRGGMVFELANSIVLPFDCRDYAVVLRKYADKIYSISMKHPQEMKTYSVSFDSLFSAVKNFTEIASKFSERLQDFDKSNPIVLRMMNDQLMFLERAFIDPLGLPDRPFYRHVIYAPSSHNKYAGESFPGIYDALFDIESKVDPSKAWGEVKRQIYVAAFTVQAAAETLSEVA
Sequence of human recombinant PSMA (rhPSMA) (Q04609 44-750 limits assumed): as the sequence (Q04609 44-750) above

Ki [2, 4]	IC50 ([2]; Table 2)	Compound	Ki [2, 5]	IC50 ([2]; Table 1, 20 μM NAAG)	also measured
		CC(C)(C)OC(=O)CC[C@H](NC(=O)N[C@@H](CCCCn1cc(COCCOCCOCCOCCNc2ccc([N+](=O)[O-])cc2[N+](=O)[O-])nn1)C(=O)OC(C)(C)C)C(=O)OC(C)(C)C [PC-ARM (3), (S)-di-tert-butyl 2-(3-((S)-1-tert-butoxy-6-(4-(13-(2,4-dinitrophenylamino)-2,5,8,11-tetraoxamidecyl)-1H-1,2,3-triazol-1-yl)-1-oxohexan-2-yl)ureido)pentanedioate]			Ki [1]: 0.9 ± 0.3 nM
0.078 ± 0.007 nM	1.78 ± 0.15 nM	O=C(O)CC[C@H](NC(=O)N[C@@H](CCCCn1cc(COCCOCCNc2ccccc2[N+](=O)[O-])nn1)C(=O)O)C(=O)O [Compound 13, (S)-2-(3-((S)-1-carboxy-5-(4-((2-(2-(2-nitrophenylamino)ethoxy)ethoxy)methyl)-1H-1,2,3-triazol-1-yl)pentyl)ureido)pentanedioic acid]			Ki ([2]; Table 2 analogues): 0.06 nM
		CC(=O)N[C@@H](CC(=O)O)C(=O)N[C@@H](CCC(=O)O)C(=O)O [NAAG, N-acetyl-aspartylglutamate] (Ac-Asp-Glu-OH)			Km [3]: 0.925 µM
		COCCOCCOCCOCCOCCOCCOCCOCCOCCOCCOCCOCCOCc1cn(CCCC[C@H](NC(=O)N[C@@H](CCC(=O)O)C(=O)O)C(=O)O)nn1 [12, MeO-P12, (S)-2-(3-((S)-5-(4-2,5,8,11,14,17,20,23,26,29,32,35,38-tridecaoxanonatriacontyl-1H-1,2,3-triazol-1-yl)-1-carboxypentyl)ureido)pentanedioic acid]	7.3 ± 2.6 nM	165 ± 58.9 nM	
		COCCOCCOCc1cn(CCCC[C@H](NC(=O)N[C@@H](CCC(=O)O)C(=O)O)C(=O)O)nn1 [9, MeO-P2, (S)-2-(3-((S)-1-carboxy-5-(4-((2-(2-methoxyethoxy)ethoxy)methyl)-1H-1,2,3-triazol-1-yl)pentyl)ureido)pentanedioic acid]	1.81 ± 0.42 nM	40.8 ± 9.4 nM	
0.73 ± 0.28 nM	16.6 ± 6.3 nM	O=C(O)CC[C@H](NC(=O)N[C@@H](CCCCn1cc(COCCOCCNc2ccccc2)nn1)C(=O)O)C(=O)O [Compound 15, (S)-2-(3-((S)-1-carboxy-5-(4-((2-(2-(phenylamino)ethoxy)ethoxy)methyl)-1H-1,2,3-triazol-1-yl)pentyl)ureido)pentanedioic acid]			Ki ([2]; Table 2 analogues): 0.73 nM
		O=C(O)CC[C@H](NC(=O)N[C@@H](CCCCn1cc(COCCOCCOCCOCCOCCOCCOCCOCCOCCOCCOCCOCCNc2ccc([N+](=O)[O-])cc2[N+](=O)[O-])nn1)C(=O)O)C(=O)O [7, ARM-P12]	1.65 ± 0.72 nM	37.3 ± 16.2 nM	
		COCCOCCOCCOCCOCCOCCOCCOCCOCc1cn(CCCC[C@H](NC(=O)N[C@@H](CCC(=O)O)C(=O)O)C(=O)O)nn1 [11, MeO-P8, (S)-2-(3-((S)-5-(4-2,5,8,11,14,17,20,23,26-nonaoxaheptacosyl-1H-1,2,3-triazol-1-yl)-1-carboxypentyl)ureido)pentanedioic acid]	5.79 ± 2.54 nM	131 ± 57.6 nM	
0.97 nM	21.9 ± 9.9 nM	COc1ccc(NCCOCCOCc2cn(CCCC[C@H](NC(=O)N[C@@H](CCC(=O)O)C(=O)O)C(=O)O)nn2)cc1 [Compound 16, (S)-2-(3-((S)-1-carboxy-5-(4-((2-(2-(4-methoxyphenylamino)ethoxy)ethoxy)methyl)-1H-1,2,3-triazol-1-yl)pentyl)ureido)pentanedioic acid]			Ki ([2]; Table 2 analogues): 0.97 nM
		O=C(O)CC[C@H](NC(=O)N[C@@H](CCCCn1cc(CNc2ccc([N+](=O)[O-])cc2[N+](=O)[O-])nn1)C(=O)O)C(=O)O [1, ARM-P0, (S)-2-(3-((S)-1-carboxy-5-(4-((2,4-dinitrophenylamino)methyl)-1H-1,2,3-triazol-1-yl)pentyl)ureido)pentanedioic acid]	0.078 ± 0.018 nM	1.76 ± 0.41 nM	
0.06 ± 0.008 nM	1.36 ± 0.18 nM	O=C(O)CC[C@H](NC(=O)N[C@@H](CCCCn1cc(COCCOCCNc2ccc([N+](=O)[O-])cc2)nn1)C(=O)O)C(=O)O [Compound 14, (S)-2-(3((S)-1-carboxy-5-(4-((2-(2-(4-nitrophenylamino)ethoxy)ethoxy)methyl)-1H-1,2,3-triazol-1-yl)pentyl)ureido)pentanedioic acid]			Ki ([2]; Table 2 analogues): 0.078 nM
15.1 nM	342 ± 170 nM	O=C(O)CC[C@H](NC(=O)N[C@@H](CCCCn1cc(COCCOCCNC2CCCCC2)nn1)C(=O)O)C(=O)O [Compound 17, (S)-2-(3-((S)-1-carboxy-5-(4-((2-(2-(cyclohexylamino)ethoxy)ethoxy)methyl)-1H-1,2,3-triazol-1-yl)pentyl)ureido)pentanedioic acid]			
		O=C(O)CC[C@H](NC(=O)N[C@@H](CCCCn1cc(COCCOCCOCCOCCOCCOCCNc2ccc([N+](=O)[O-])cc2[N+](=O)[O-])nn1)C(=O)O)C(=O)O [5, ARM-P6]	0.101 ± 0.027 nM	2.29 ± 0.6 nM	
		O=C(O)CC[C@H](NC(=O)N[C@@H](CCCCn1cc(COCCNc2ccc([N+](=O)[O-])cc2[N+](=O)[O-])nn1)C(=O)O)C(=O)O [2, ARM-P1, (S)-2-(3-((S)-1-carboxy-5-(4-((2-(2,4-dinitrophenylamino)ethoxy)methyl)-1H-1,2,3-triazol-1-yl)pentyl)ureido)pentanedioic acid]	0.047 ± 0.005 nM	1.05 ± 0.11 nM	
		COCc1cn(CCCC[C@H](NC(=O)N[C@@H](CCC(=O)O)C(=O)O)C(=O)O)nn1 [8, MeO-P0, (S)-2-(3-((S)-1-carboxy-5-(4-(methoxymethyl)-1H-1,2,3-triazol-1-yl)pentyl)ureido)pentanedioic acid]	1.35 ± 0.54 nM	30.5 ± 12.1 nM	
